Test results reported in patent US20190117713A1, “ANTIBACTERIAL COMPOSITION” (FermBiotics Holding ApS, priority 2016, published 2019).

Tested on: streptococcus infection
Assay: Treatment of a patient suffering from a streptococcus infection (case report)
Details: treatment repeated 4 times more

phenoxymethylpenicillinsodium was tested, and the “Improvement of streptococcus infection after repeated treatment” value was “no significant improvement”.
